Experimental data as given in patent US4698352A, “4-oxo-1,4-dihydronicotinic acid derivatives, salts thereof, and antibacterial agents containing the same” (Toyama Chemical Co., Ltd., priority 1982, dated 1987).
In brackets after ≈: the same amount, converted by molar mass. Where two headings read alike, the source gives them in different places.

Columns and labels:
Assay in all cases: Antibacterial activity (MIC), agar dilution
Assay type in all cases: cell-based
E. coli NIHJ JC-2 = settings: Escherichia coli, NIHJJC2, 20 h
Source text: (§1) The amount of bacteria inoculated was 10^4 cells per plate (10^6 cells per ml).

Kl. pneumoniae Y-41 = settings: Klebsiella pneumoniae, Y41, 10^6 cells per ml, 37° C., 20 hours, read-out: MIC
Source text: as §1

Ent. cloacae IID977 = settings: Enterobacter cloacae, IID977, 20 h
Source text: as §1

E. coli TK-111 = settings: Escherichia coli, TK111, 20 h, E. coli TK-111; 10^6 cells per ml; 37° C., 20 hours; read-out: MIC
Source text: as §1

Pro. vulgaris GN3027 = settings: Proteus vulgaris, GN3027, 20 h, Pro. vulgaris GN3027; 10^6 cells per ml; 37° C., 20 hours; read-out: MIC
Source text: as §1

Ps. aeruginosa S-68 = settings: Pseudomonas aeruginosa
Source text: as §1

St. aureus FDA209P = settings: Staphylococcus aureus, FDA209P, 20 h
Source text: as §1

Pro. morganii T-216 = settings: Morganella morganii, 37° C.
Source text: as §1

Ps. aeruginosa IFO3445 = settings: Pseudomonas aeruginosa; Ps. aeruginosa IFO3445; 10^6 cells per ml; 37° C., 20 hours; read-out: MIC
Source text: as §1

Aci. antitratus A-6 = settings: 20 h, Aci. antitratus A-6; 10^6 cells per ml; 37° C., 20 hours; read-out: MIC
Source text: as §1

Pro. mirabilis T-111 = settings: Proteus mirabilis, 37° C.
Source text: as §1

Kl. pneumoniae Y-50 = settings: Klebsiella pneumoniae, Y50, 20 h, 10^6 cells per ml, 37° C., read-out: MIC
Source text: as §1

E. coli TK-3* = settings: Escherichia coli, 20 h
Source text: as §1
(§2) * Penicillinase-producing bacteria

St. aureus F-137* = settings: Staphylococcus aureus, 20 h
Source text: as §1, §2

Ps. aeruginosa GN3379* = settings: Pseudomonas aeruginosa, 20 h; Ps. aeruginosa GN3379, penicillinase-producing; 10^6 cells per ml; read-out: MIC
Source text: as §1, §2

Kl. pneumoniae Y-4* = settings: Klebsiella pneumoniae, 20 h, Kl. pneumoniae Y-4, penicillinase-producing; 10^6 cells per ml; read-out: MIC
Source text: as §1, §2

Ps. aeruginosa GN918** = settings: Pseudomonas aeruginosa, 20 h; Ps. aeruginosa GN918, cephalospolinase-producing; 10^6 cells per ml; read-out: MIC
Source text: as §1
(§3) ** Cephalospolinase-producing bacteria

E. coli GN5482** = settings: Escherichia coli, 20 h; E. coli GN5482, cephalospolinase-producing; 10^6 cells per ml; read-out: MIC
Source text: as §1, §3

Pro. vulgaris GN76** = settings: Proteus vulgaris
Source text: as §1, §3

[1] = E. coli NIHJ JC-2, 10^6 cells per ml, 37° C., 20 hours, read-out: MIC
[2] = S68, Ps. aeruginosa S-68, 10^6 cells per ml, 37° C., 20 hours, read-out: MIC
[3] = 20 h, Pro. vulgaris GN76, cephalospolinase-producing, 10^6 cells per ml, read-out: MIC
[4] = St. aureus FDA209P, 10^6 cells per ml, 37° C., 20 hours, read-out: MIC
[5] = T216, 10^6 cells per ml, 20 hours, read-out: MIC
[6] = E. coli TK-3, penicillinase-producing, 10^6 cells per ml, read-out: MIC
[7] = T111, 10^6 cells per ml, 20 hours, read-out: MIC
[8] = St. aureus F-137, penicillinase-producing, 10^6 cells per ml, read-out: MIC
[9] = Ent. cloacae IID977, 10^6 cells per ml, 37° C., 20 hours, read-out: MIC

Structure (SMILES) | MIC (E. coli NIHJ JC-2; [1]) [µg/mL] | MIC (Kl. pneumoniae Y-41) [µg/mL] | MIC (Ent. cloacae IID977) [µg/mL] | MIC (E. coli TK-111) [µg/mL] | MIC (Pro. vulgaris GN3027) [µg/mL] | MIC (Ps. aeruginosa S-68; [2]) [µg/mL] | MIC (St. aureus FDA209P) [µg/mL] | MIC (Pro. morganii T-216; T216, 20 h, 10^6 cells per ml) [µg/mL] | MIC (Ps. aeruginosa IFO3445) [µg/mL] | MIC (Aci. antitratus A-6) [µg/mL] | MIC (Pro. mirabilis T-111; T111, 20 h, 10^6 cells per ml) [µg/mL] | MIC (Kl. pneumoniae Y-50) [µg/mL] | MIC (St. aureus F-137*) [µg/mL] | MIC (Ps. aeruginosa GN3379*) [µg/mL] | MIC (Kl. pneumoniae Y-4*) [µg/mL] | MIC (Ps. aeruginosa GN918**) [µg/mL] | MIC (E. coli GN5482**) [µg/mL] | MIC (Pro. morganii T-216; [5]) [µg/mL] | MIC (E. coli TK-3*; [6]) [µg/mL] | MIC (Pro. vulgaris GN76**; GN76, 20 h) [µg/mL] | other results
Cc1ccc(-c2cc(=O)c(C(=O)O)cn2-c2ccc(F)cc2)s1 | 1.56 (≈ 4.74 µM) | 6.25 (≈ 19 µM) | 3.13 (≈ 9.5 µM) | 0.78 (≈ 2.37 µM) | 0.2 (≈ 0.607 µM) | 25 (≈ 75.9 µM) | 3.13 (≈ 9.5 µM) | 3.13 (≈ 9.5 µM) | 50 (≈ 152 µM) | 1.56 (≈ 4.74 µM) | 6.25 (≈ 19 µM) | 3.13 (≈ 9.5 µM) | 3.13 (≈ 9.5 µM) | 25 (≈ 75.9 µM) | 12.5 (≈ 38 µM) | 50 (≈ 152 µM) | 0.2 (≈ 0.607 µM) | – | – | – | MIC (E. coli TK-3*): 3.13 µg/mL (≈ 9.5 µM); MIC (Pro. vulgaris GN76**; [3]): 1.56 µg/mL (≈ 4.74 µM)
O=C(O)c1cn(-c2ccc(F)cc2)c(-c2ccc(Br)s2)cc1=O | – | 12.5 (≈ 31.7 µM) | 12.5 (≈ 31.7 µM) | 1.56 (≈ 3.96 µM) | 0.39 (≈ 0.989 µM) | 25 (≈ 63.4 µM) | – | – | 50 (≈ 127 µM) | 1.56 (≈ 3.96 µM) | 12.5 (≈ 31.7 µM) | 3.13 (≈ 7.94 µM) | 3.13 (≈ 7.94 µM) | 25 (≈ 63.4 µM) | 25 (≈ 63.4 µM) | 100 (≈ 254 µM) | 0.39 (≈ 0.989 µM) | 6.25 (≈ 15.9 µM) | 6.25 (≈ 15.9 µM) | 3.13 (≈ 7.94 µM) | MIC (E. coli NIHJ JC-2): 3.13 µg/mL (≈ 7.94 µM); MIC (St. aureus FDA209P; [4]): 1.56 µg/mL (≈ 3.96 µM)
CN(C)c1ccc(-c2cc(=O)c(C(=O)O)cn2-c2ccccc2F)cc1 | 1.56 (≈ 4.43 µM) | 6.25 (≈ 17.7 µM) | 6.25 (≈ 17.7 µM) | 0.78 (≈ 2.21 µM) | 0.78 (≈ 2.21 µM) | 25 (≈ 70.9 µM) | – | 6.25 (≈ 17.7 µM) | > 100 | 1.56 (≈ 4.43 µM) | – | 3.13 (≈ 8.88 µM) | – | > 100 | 25 (≈ 70.9 µM) | > 100 | 0.39 (≈ 1.11 µM) | – | – | 3.13 (≈ 8.88 µM) | MIC (St. aureus FDA209P; [4]): 1.56 µg/mL (≈ 4.43 µM); MIC (Pro. mirabilis T-111; [7]): 25 µg/mL (≈ 70.9 µM); MIC (E. coli TK-3*): 3.13 µg/mL (≈ 8.88 µM); MIC (St. aureus F-137*; [8]): 1.56 µg/mL (≈ 4.43 µM)
O=C(O)c1cn(-c2ccc(F)cc2)c(-c2ccc(Cl)s2)cc1=O | – | 12.5 (≈ 35.7 µM) | 12.5 (≈ 35.7 µM) | 1.56 (≈ 4.46 µM) | 0.39 (≈ 1.12 µM) | 25 (≈ 71.5 µM) | 3.13 (≈ 8.95 µM) | – | 50 (≈ 143 µM) | 1.56 (≈ 4.46 µM) | 12.5 (≈ 35.7 µM) | 3.13 (≈ 8.95 µM) | 3.13 (≈ 8.95 µM) | 25 (≈ 71.5 µM) | 25 (≈ 71.5 µM) | 100 (≈ 286 µM) | 0.39 (≈ 1.12 µM) | 6.25 (≈ 17.9 µM) | 6.25 (≈ 17.9 µM) | 3.13 (≈ 8.95 µM) | MIC (E. coli NIHJ JC-2): 3.13 µg/mL (≈ 8.95 µM)
COc1ccc(-c2cc(=O)c(C(=O)O)cn2-c2ccc(F)cc2)cc1 | 1.56 (≈ 4.6 µM) | 12.5 (≈ 36.8 µM) | – | 0.78 (≈ 2.3 µM) | 0.39 (≈ 1.15 µM) | 25 (≈ 73.7 µM) | 3.13 (≈ 9.22 µM) | – | 25 (≈ 73.7 µM) | 1.56 (≈ 4.6 µM) | 12.5 (≈ 36.8 µM) | 3.13 (≈ 9.22 µM) | 3.13 (≈ 9.22 µM) | 25 (≈ 73.7 µM) | 12.5 (≈ 36.8 µM) | 50 (≈ 147 µM) | 0.2 (≈ 0.589 µM) | 6.25 (≈ 18.4 µM) | – | 3.13 (≈ 9.22 µM) | MIC (Ent. cloacae IID977; [9]): 6.25 µg/mL (≈ 18.4 µM); MIC (E. coli TK-3*): 3.13 µg/mL (≈ 9.22 µM)
CNc1ccc(-c2cc(=O)c(C(=O)O)cn2-c2ccc(F)cc2)cc1C | – | 6.25 (≈ 17.7 µM) | 6.25 (≈ 17.7 µM) | 0.39 (≈ 1.11 µM) | 0.78 (≈ 2.21 µM) | – | 1.56 (≈ 4.43 µM) | 6.25 (≈ 17.7 µM) | 50 (≈ 142 µM) | 0.78 (≈ 2.21 µM) | 12.5 (≈ 35.5 µM) | 1.56 (≈ 4.43 µM) | – | 25 (≈ 70.9 µM) | 12.5 (≈ 35.5 µM) | 50 (≈ 142 µM) | 0.2 (≈ 0.568 µM) | – | 3.13 (≈ 8.88 µM) | – | MIC (E. coli NIHJ JC-2): 1.56 µg/mL (≈ 4.43 µM); MIC (Ps. aeruginosa S-68; S68, 20 h): 12.5 µg/mL (≈ 35.5 µM); MIC (St. aureus F-137*; [8]): 0.78 µg/mL (≈ 2.21 µM); MIC (Pro. vulgaris GN76**; [3]): 3.13 µg/mL (≈ 8.88 µM)
CN(C)c1ccc(-c2cc(=O)c(C(=O)O)cn2-c2ccc(F)cc2F)cc1 | 0.78 (≈ 2.11 µM) | 6.25 (≈ 16.9 µM) | – | 0.2 (≈ 0.54 µM) | 0.2 (≈ 0.54 µM) | 12.5 (≈ 33.8 µM) | – | – | 12.5 (≈ 33.8 µM) | 0.39 (≈ 1.05 µM) | – | 0.78 (≈ 2.11 µM) | – | 25 (≈ 67.5 µM) | 6.25 (≈ 16.9 µM) | 12.5 (≈ 33.8 µM) | 0.1 (≈ 0.27 µM) | 3.13 (≈ 8.45 µM) | 3.13 (≈ 8.45 µM) | – | MIC (Ent. cloacae IID977; [9]): 3.13 µg/mL (≈ 8.45 µM); MIC (St. aureus FDA209P; [4]): 0.2 µg/mL (≈ 0.54 µM); MIC (Pro. mirabilis T-111; [7]): 3.13 µg/mL (≈ 8.45 µM); MIC (St. aureus F-137*; [8]): 0.1 µg/mL (≈ 0.27 µM); MIC (Pro. vulgaris GN76**; [3]): 0.78 µg/mL (≈ 2.11 µM)
